# In patent publication US20120184537A1, “[1,4]-BENZODIAZEPINES AS VASOPRESSIN V2 RECEPTOR ANTAGONISTS” (SHIRE-MOVETIS N.V., priority 2009, published 2012):
# Columns and labels:
# human V2 receptor [1] = molecular target: T1, human V2 receptor (Homo sapiens, UniProt P30518); experiment: Human V2 antagonist effect (AVP-induced cAMP accumulation in transfected CHO cells); assay type: cell-based; parameters: expressed in transfected cells; host or cells: CHO cells; conditions: inhibition of control response to 0.03 nM AVP, read-out: V2 antagonism IC50
# Procedure: (§1) The accumulation of cAMP was measured in transfected CHO cells (supra) expressing the human V2 receptor in analogy with the cAMP Assay procedures described in Cotte N., et al., (1998) J. Biol. Chem., 273; 29462-29468; which is incorporated herein by reference.
# The cells are suspended in HBSS buffer (Invitrogen) complemented with 20 mM HEPES (pH 7.4), 0.01% and 500 μM IBMX, then distributed in microplates at a density of 3×10^3 cells/well and preincubated for 5 min at 22° C. in the absence (control) or presence of the test compound or the reference antagonist. Thereafter, the reference agonist AVP is added at a final concentration of 0.03 nM.
# Following 30 min incubation at 22° C., the cells are lysed and the fluorescence acceptor (D2-labeled cAMP) and fluorescence donor (anti-cAMP antibody labeled with europium cryptate) are added. After 60 min at 22° C., the fluorescence transfer is measured at λex=337 nm and λem=620 and 665 nm using a microplate reader (Rubystar, BMG). The cAMP concentration is determined by dividing the signal measured at 665 nm by that measured at 620 nm (ratio). The results are expressed as a percent inhibition of the control response to 0.03 nM AVP.
# The standard reference antagonist is [adamantaneacetyl^1,O-Et-D-Tyr^2,Val^4,aminobutyryl^6]-AVP, which is tested in each experiment at several concentrations to generate a concentration-response curve from which its IC50 value is calculated.
# human V2 receptor [2] = molecular target: T1, human V2 receptor; experiment: Human vasopressin V2 receptor binding assay ([3H]AVP displacement); parameters: expressed in transfected cells; host or cells: CHO cells (membrane homogenates); conditions: displacement of 0.3 nM [3H]AVP, CHO cell membranes, 120 min at 22° C.
# Procedure: (§2) The in vitro inhibition of AVP receptor binding was assessed by using recombinant human V1a or V2 receptor preparations derived from the membranes of transfected CHO cells. Compounds were assessed for their ability to displace [^3H]-arginine vasopressin from plasma membrane preparations of said CHO transfected cells in analogy with the Binding Assay procedures described in Cotte N., et al., (1998) J. Biol. Chem., 273; 29462-29468 and Tahara A., et al., (1998) Brit. J. Pharmacol., 125; 1463-1470; which are incorporated herein by reference.
# (§3) Cell membrane homogenates (16 μg protein) are incubated for 120 min at 22° C. with 0.3 nM [^3H]AVP in the absence or presence of the test compound in a buffer containing 50 mM Tris-HCl (pH 7.4), 5 mM MgCl2 and 0.1% BSA. Nonspecific binding is determined in the presence of 1 μM AVP. Following incubation, the samples are filtered rapidly under vacuum through glass fiber filters (GF/B, Packard) presoaked with 0.3% PEI and rinsed three times with ice-cold 50 mM Tris-HCl using a 96-sample cell harvester (Unifilter, Packard). The filters are dried then counted for radioactivity in a scintillation counter (Topcount, Packard) using a scintillation cocktail (Microscint 0, Packard).
# (§4) The standard reference compound is AVP (V2 receptor binding assay) or [d(CH2)51,Tyr(Me)2]-AVP (V1a receptor binding assay), which is tested in each experiment at several concentrations to obtain a competition curve from which its IC50 is calculated.
# human V1a receptors [3] = molecular target: T2, human V1a receptors (Homo sapiens, UniProt P37288); experiment: Human V1a antagonist effect (AVP-induced calcium mobilization in transfected CHO cells); assay type: cell-based; parameters: expressed in transfected cells; host or cells: CHO cells; conditions: inhibition of response to 10 nM AVP, Ca2+ fluorescence, read-out: V1a antagonism IC50
# T2 sequence (P37288 whole entry): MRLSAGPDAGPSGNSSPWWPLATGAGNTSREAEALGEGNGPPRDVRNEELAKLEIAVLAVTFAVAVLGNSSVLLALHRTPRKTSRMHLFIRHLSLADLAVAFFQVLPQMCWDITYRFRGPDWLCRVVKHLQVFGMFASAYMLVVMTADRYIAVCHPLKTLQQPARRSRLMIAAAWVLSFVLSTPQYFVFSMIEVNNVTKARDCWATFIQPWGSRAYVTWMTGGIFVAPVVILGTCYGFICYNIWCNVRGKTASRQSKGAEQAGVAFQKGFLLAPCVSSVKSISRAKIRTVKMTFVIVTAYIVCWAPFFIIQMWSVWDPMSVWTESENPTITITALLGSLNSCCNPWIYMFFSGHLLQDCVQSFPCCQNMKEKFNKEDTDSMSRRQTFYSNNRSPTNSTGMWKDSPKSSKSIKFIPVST
# Procedure: (§5) Intracellular calcium mobilization was measured in CHO cells transfected to express either human V1a receptors (supra), in analogy with the Measurement of intracellular Ca^2+ concentration as described in Tahara A., et al., (1998) Brit. J. Pharmacol., 125; 1463-1470; which is incorporated herein by reference.
# (§6) The cells are suspended in DMEM buffer (Invitrogen) complemented with 0.1% fetal calf serum, then distributed in microplates at a density of 4.5×10^4 cells/well.
# (§7) The fluorescent probe (Calcium4, Molecular Device) mixed with probenicid in HBSS buffer (Invitrogen) complemented with 20 mM Hepes (Invitrogen) (pH 7.4) is then added into each well and equilibrated with the cells for 60 min at 37° C. then 15 min at 22° C. Thereafter, the assay plates are positioned in a microplate reader (CellLux, PerkinElmer) which is used for the addition of the test compound or HBSS buffer then 5 min later 10 nM AVP or HBSS buffer (control), and for the measurements of changes in fluorescence intensity which varies proportionally to the free cytosolic Ca2+ ion concentration.
# The standard reference antagonist is [d(CH2)^51,Tyr(Me)^2,Arg^8]-AVP, which is tested in each experiment at several concentrations to generate a concentration-response curve from which its IC50 value is calculated.
# human V1a receptors [4] = molecular target: T2, human V1a receptors; experiment: Human vasopressin V1a receptor binding assay ([3H]AVP displacement); parameters: expressed in transfected cells; host or cells: CHO cells (membrane homogenates); conditions: displacement of 0.3 nM [3H]AVP, CHO cell membranes, 22° C.
# Procedure: as §2
# as §3, with “(40” for “(16”, “for” for “for 120”
# as §4
# human V2 receptor [5] = molecular target: T1, human V2 receptor; experiment: Human V2 agonist effect (cAMP accumulation in transfected CHO cells); assay type: cell-based; parameters: expressed in transfected cells; host or cells: CHO cells; conditions: compound at 1 μM, control response to 1 nM AVP
# Procedure: as §1
# The cells are suspended in HBSS buffer (Invitrogen) complemented with 20 mM HEPES 20 (pH 7.4), 0.01% BSA and 500 μM IBMX, then distributed in microplates at a density of 3×10^3 cells/well and incubated for 30 min at 22° C. in the absence (control) or presence of the test compound or the reference agonist. For stimulated control measurement, separate assay wells contain AVP at a final concentration of 1 nM. Following incubation, the cells are lysed and the fluorescence acceptor (D2-labeled cAMP) and fluorescence donor (anti-cAMP antibody labeled with europium cryptate) are added. After 60 min at 22° C., the fluorescence transfer is measured at λex=337 nm and λem=620 and 665 nm using a microplate reader (Rubystar, BMG). The cAMP concentration is determined by dividing the signal measured at 665 nm by that measured at 620 nm (ratio).
# The results are expressed as a percent of the control response to 1 nM AVP.
# human V1a receptors [6] = molecular target: T2, human V1a receptors; experiment: Human V1a agonist effect (intracellular calcium mobilization in transfected CHO cells); assay type: cell-based; parameters: expressed in transfected cells; host or cells: CHO cells; conditions: compound at 1 μM, control response to 1 μM AVP, Ca2+ fluorescence
# Procedure: as §5, §6
# as §7, with “compound, reference agonist” for “compound”, “(basal control),” for “then 5 min later 10 nM AVP or HBSS buffer (control),”, “Ca^2+” for “Ca2+”, “concentration. For stimulated control measurements, AVP at 1 μM is added in separate assay wells.” for “concentration.”
# The results are expressed as a percent of the control response to 1 μM AVP.
IC50 (human V2 receptor [1]) [nM],IC50 (human V2 receptor [2]) [nM],IC50 (human V1a receptors [3]) [nM],IC50 (human V1a receptors [4]) [nM],"V2 agonist effect, % of control agonist response (AVP) (human V2 receptor [5]) [%]","V1a agonist effect, % of control agonist response (AVP) (human V1a receptors [6]) [%]",Molecule
2800,120,,,−1,−1,"O=C(O)CN1Cc2ccccc2N(C(=O)c2ccc(NC(=O)c3ccccc3-c3ccccc3)cc2Cl)C[C@H]1CO [Compound 17, (S)-2-(1-(4-biphenyl-2-ylcarboxamido-2-chlorobenzoyl)-3-(hydroxymethyl)-2,3-dihydro-1H-benzo[e][1,4]diazepin-4(5H)-yl)acetic acid]"
11,2.5,20000,210,0,−1,"O=C(Nc1ccc(C(=O)N2C[C@H]3COC(O)CN3Cc3ccccc32)c(Cl)c1)c1ccccc1-c1ccccc1 (stereo partly drawn) [Compound 19, (S)—N-(3-chloro-4-(3-hydroxy-3,4,6,11,12,12a-hexahydro-1H-benzo[e][1,4]oxazino[4,3-a][1,4]diazepine-11-carbonyl)phenyl)biphenyl-2-carboxamide]"

# More lines, now with the values behind:
Molecule,IC50 (human V2 receptor [1]) [nM],IC50 (human V2 receptor [2]) [nM],IC50 (human V1a receptors [3]) [nM],IC50 (human V1a receptors [4]) [nM],"V2 agonist effect, % of control agonist response (AVP) (human V2 receptor [5]) [%]","V1a agonist effect, % of control agonist response (AVP) (human V1a receptors [6]) [%]"
"N-[3-chloro-4-({13-oxa-1,9-diazatricyclo[9.4.0.0^{3,8}]pentadeca-1,3,5,7-tetraen-9-yl}carbonyl)phenyl]-2-phenylbenzamide [Compound 21]",410,19,> 100000,780,−1.5,
"O=C1CN2Cc3ccccc3N(C(=O)c3ccc(NC(=O)c4ccccc4-c4ccccc4)cc3Cl)C[C@H]2CO1 [Compound 16, (S)—N-(3-chloro-4-(3-oxo-3,4,6,11,12,12a-hexahydro-1H-benzo[e][1,4]oxazino[4,3-a][1,4]diazepine-11-carbonyl)phenyl)biphenyl-2-carboxamide]",13,1.9,> 100000,240,0,−1
"O=C(Nc1ccc(C(=O)N2C[C@@H](CO)NCc3ccccc32)c(Cl)c1)c1ccccc1-c1ccccc1 [Compound 14, (S)—N-(3-chloro-4-(3-(hydroxymethyl)-2,3,4,5-tetrahydro-1H-benzo[e][1,4]diazepine-1-carbonyl)phenyl)biphenyl-2-carboxamide]",57,5.8,> 100000,3800,−1,−1
